Experimental findings from publication PMC9458111, “New 1,2,3-Triazole-Coumarin-Glycoside Hybrids and Their 1,2,4-Triazolyl Thioglycoside Analogs Targeting Mitochondria Apoptotic Pathway: Synthesis, Anticancer Activity and Docking Simulation” (Molecules, 2022) are described below.

For series [1], the system named is human osteosarcoma (HOS cell lines). Put plainly: MTT cytotoxicity assay, HOS. The class given is cell-based. The following applies: 48 h. How it is done: (§1) The synthesized compounds were studied for their cytotoxic activity against several human cancer cell lines, namely human osteosarcoma (HOS cell lines), human breast adenocarcinoma (MDA-MB-231 cell lines), human breast cancer (MCF-7 cell lines), human colorectal adenocarcinoma (Caco-2 cell lines) and human colon cell line (HCT-116 cell lines) using MTT assay at 100 µM, and the results were outlined as shown in Table 1.
(§2) Human osteosarcoma (HOS cell line), human breast adenocarcinoma (MDA-MB-231cell lines), human breast cancer (MCF-7 cell lines), human colorectal adenocarcinoma (Caco2 cell lines), human colon cell line (HCT-116 cell lines), normal human cell lines (BJ-1), and “a telomerase immortalized normal foreskin fibroblast cell line” were obtained from Karolinska Center, Department of Oncology and Pathology, Karolinska Institute and Hospital, Stockholm, Sweden.
(§3) Following culturing for 10 days, the cells were seeded at concentration of 10 × 10^3 cells per well in case of MCF-7 & MDA, 20 × 10^3 cells/well in a fresh complete growth medium in case of HCT-116, Caco2, & HOS and 40 × 10^3 cells/well in case of BJ-1 at 37 °C for 24 h in a water jacketed carbon dioxide incubator. After 48 h’ incubation, the medium was aspirated, and then 40 μl MTT salt (2.5 mg/mL) were added for a further 4 h; 200 μl 10% sodium dodecyl sulphate (SDS) in deionized water were added to each well and incubated overnight at 37 °C. The absorbance was measured at 595 nm with reference 690 nm. Doxorubicin was used as positive control, and 0.5% DMSO was used as negative control. IC50 values were calculated, using a probit analysis, and by utilizing the SPSS computer program (SPSS for Windows, statistical analysis software package/version 9/1989 SPSS Inc., Chicago, IL, USA).

For series [2], the system named is normal human skin cell lines BJ-1. Put plainly: Safety on normal human skin cells BJ-1 (MTT). The class given is cell-based. The following applies: 100 µM. How it is done: To determine the selectivity and safety, all tested compounds were subjected to an assay for their safety upon normal human skin cell lines BJ-1 at a concentration of 100 µM.
as §2, §3

The subject of series [3] is human colon cell line (HCT-116 cell lines). Put plainly: MTT cytotoxicity assay, HCT-116. The class given is cell-based. The following applies: for cytotoxicity at 100 µM: HCT-116, 48 h. The method, then: as §1, §2, §3
The test system of series [4] is human breast cancer (MCF-7 cell lines). As to the kind of experiment: MTT cytotoxicity assay, MCF-7. The format is cell-based. The following applies: for cytotoxicity at 100 µM: MCF7, 48 h; for IC50: MCF7, MTT, 0.78–100 µM, ± SD. The method, then: as §1, §2, §3
In series [5] the test system is human breast adenocarcinoma (MDA-MB-231 cell lines). Put plainly: MTT cytotoxicity assay, MDA-MB-231. The following applies: MDA-MB-231, 48 h. The class given is cell-based. The method, then: as §1, §2, §3
In series [6] the test system is human colorectal adenocarcinoma (Caco-2 cell lines). Put plainly: MTT cytotoxicity assay, Caco-2. The following applies: Caco-2, 48 h. The class given is cell-based. How it is done: as §1, §2, §3
The next series addresses EGFR (Homo sapiens, UniProt P00533). Put plainly: EGFR kinase inhibitory assay (Kinase-Glo Max luminescence). The format is biochemical. The following applies: for IC50: mean of three values, read-out: IC50 (Mean ± SEM), EGFR.
A further series addresses VEGFR-2 (Homo sapiens, UniProt P35968). Put plainly: VEGFR-2 inhibitory assay (ELISA). The following applies: for IC50: mean of three values, read-out: IC50 (Mean ± SEM), VEGFR-2. The class given is biochemical. The method, then: The cells were harvested, and the homogenates were prepared in saline using a tight pestle homogenizer until complete cell disruption. The kit uses a double-antibody sandwich enzyme-linked immunosorbent assay (ELISA) to determine the level of human VEGFR-2 in samples. A monoclonal antibody for VEGFR-2 was pre-coated onto 96-well plates. The test samples are added to the wells, and a biotinylated detection polyclonal antibody from goat specific for VEGFR-2 was added subsequently followed by washing with PBS buffer. Avidin-Biotin-Peroxidase complex was added, and the unbound conjugates were washed away with PBS buffer. HRP substrate TMB was used to visualize HRP enzymatic reaction. TMB was catalyzed by HRP to produce a blue color product that changed into yellow after adding acidic stop solution. The density of yellow color is proportional to the human VEGFR-2 amount of the sample captured in the plate. The chroma of color and the concentration of the human VEGFR-2 of the samples were positively correlated, and the optical density was determined at 450 nm. The level of human VEGFR-2 in samples was calculated (pg/ml) as duplicate determinations from the standard curve. Percent inhibition was calculated in comparison to control untreated cells.

The target in another series is CDK-2/cyclin A2 (Homo sapiens, UniProt P24941). Put plainly: CDK-2/cyclin A2 inhibitory assay (ELISA). The following applies: for IC50: mean of three values, read-out: IC50 (Mean ± SEM), CDK-2/Cyclin A2. The format is biochemical. The method, then:
Assay of CDK-2/cyclin A2 was achieved through ELISA using an affinity tag labeled capture antibody. […] After the incubation period, the unrestrained substance has been discarded, and the wells have been washed. The added TMB (3,3′,5,5′-tetramethylbenzidine) substrate was prompted by Horseradish peroxidase (HRP), and blue coloration appeared. This reaction was stopped through the addition of stop solution to complete changing in colour from blue to yellow. The created signals were equivalent to the quantity of bound analyte, and the Robonik P2000 ELISA reader was used to record the intensity at a certain wavelength (450 nm).

EGFR, sequence (P00533 25-1210): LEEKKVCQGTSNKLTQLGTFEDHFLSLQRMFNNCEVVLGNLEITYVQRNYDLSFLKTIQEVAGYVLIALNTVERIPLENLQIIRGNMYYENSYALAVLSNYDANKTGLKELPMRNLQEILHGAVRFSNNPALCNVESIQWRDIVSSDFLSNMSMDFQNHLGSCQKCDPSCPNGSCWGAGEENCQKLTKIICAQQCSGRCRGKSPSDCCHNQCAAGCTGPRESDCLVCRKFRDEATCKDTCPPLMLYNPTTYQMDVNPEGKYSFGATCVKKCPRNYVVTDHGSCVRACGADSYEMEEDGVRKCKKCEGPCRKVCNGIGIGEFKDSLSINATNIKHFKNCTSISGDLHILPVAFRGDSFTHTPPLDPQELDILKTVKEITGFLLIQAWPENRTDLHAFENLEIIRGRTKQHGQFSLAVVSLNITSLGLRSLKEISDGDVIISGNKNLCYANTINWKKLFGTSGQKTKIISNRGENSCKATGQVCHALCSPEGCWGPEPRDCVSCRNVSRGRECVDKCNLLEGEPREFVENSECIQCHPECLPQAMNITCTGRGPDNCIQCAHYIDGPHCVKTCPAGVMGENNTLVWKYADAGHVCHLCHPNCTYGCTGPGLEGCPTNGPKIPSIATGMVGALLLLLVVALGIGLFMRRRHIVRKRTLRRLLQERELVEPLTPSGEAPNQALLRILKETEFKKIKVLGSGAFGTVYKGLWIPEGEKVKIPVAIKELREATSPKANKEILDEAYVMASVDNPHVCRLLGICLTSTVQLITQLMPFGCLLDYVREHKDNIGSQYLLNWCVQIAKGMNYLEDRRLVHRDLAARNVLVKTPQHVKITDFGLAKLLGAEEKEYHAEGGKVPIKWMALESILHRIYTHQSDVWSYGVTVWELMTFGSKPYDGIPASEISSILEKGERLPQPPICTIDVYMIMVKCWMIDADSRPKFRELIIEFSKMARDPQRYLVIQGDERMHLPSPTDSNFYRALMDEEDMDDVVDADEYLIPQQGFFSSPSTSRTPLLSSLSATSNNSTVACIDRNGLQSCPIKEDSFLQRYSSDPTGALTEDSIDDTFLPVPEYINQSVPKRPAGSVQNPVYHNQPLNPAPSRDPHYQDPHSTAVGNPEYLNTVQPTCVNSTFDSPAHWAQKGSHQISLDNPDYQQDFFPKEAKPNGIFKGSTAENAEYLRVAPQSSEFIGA
VEGFR-2, sequence (P35968 20-1356): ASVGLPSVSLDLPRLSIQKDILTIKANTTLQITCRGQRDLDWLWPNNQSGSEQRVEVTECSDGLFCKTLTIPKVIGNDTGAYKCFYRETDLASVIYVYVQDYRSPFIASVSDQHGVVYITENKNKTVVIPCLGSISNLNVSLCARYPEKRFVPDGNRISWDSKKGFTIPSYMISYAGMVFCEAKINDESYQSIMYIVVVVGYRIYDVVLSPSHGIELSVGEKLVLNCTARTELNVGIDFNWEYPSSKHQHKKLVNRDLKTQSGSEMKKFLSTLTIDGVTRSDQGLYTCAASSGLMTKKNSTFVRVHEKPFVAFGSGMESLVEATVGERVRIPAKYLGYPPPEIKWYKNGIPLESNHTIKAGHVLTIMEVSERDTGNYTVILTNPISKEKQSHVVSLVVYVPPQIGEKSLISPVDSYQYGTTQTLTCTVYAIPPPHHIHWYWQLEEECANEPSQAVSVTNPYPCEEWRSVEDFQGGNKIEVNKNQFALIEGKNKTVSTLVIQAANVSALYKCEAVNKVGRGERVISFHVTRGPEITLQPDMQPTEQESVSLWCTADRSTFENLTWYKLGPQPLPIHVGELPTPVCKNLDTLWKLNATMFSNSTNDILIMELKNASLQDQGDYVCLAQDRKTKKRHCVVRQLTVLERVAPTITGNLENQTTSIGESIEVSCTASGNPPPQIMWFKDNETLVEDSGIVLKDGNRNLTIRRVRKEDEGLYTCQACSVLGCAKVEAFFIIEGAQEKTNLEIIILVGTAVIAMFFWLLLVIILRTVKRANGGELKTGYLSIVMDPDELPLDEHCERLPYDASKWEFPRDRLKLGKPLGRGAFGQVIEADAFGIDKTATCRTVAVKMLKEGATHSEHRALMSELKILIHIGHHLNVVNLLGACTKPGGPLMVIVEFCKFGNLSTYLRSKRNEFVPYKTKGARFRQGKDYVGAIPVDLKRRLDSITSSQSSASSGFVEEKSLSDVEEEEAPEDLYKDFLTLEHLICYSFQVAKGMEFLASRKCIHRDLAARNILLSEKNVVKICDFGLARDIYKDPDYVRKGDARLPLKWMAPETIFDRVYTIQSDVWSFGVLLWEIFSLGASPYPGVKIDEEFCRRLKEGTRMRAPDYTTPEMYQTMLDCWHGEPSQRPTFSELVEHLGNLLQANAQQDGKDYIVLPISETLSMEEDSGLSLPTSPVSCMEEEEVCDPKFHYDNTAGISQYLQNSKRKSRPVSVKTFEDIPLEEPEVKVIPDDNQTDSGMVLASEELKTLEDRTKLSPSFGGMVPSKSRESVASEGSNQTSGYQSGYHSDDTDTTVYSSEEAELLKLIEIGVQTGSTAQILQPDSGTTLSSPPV

In the case of `CCn1c(COc2ccc3c(-c4ccccc4)cc(=O)oc3c2)nnc1SCC(O)CO` (centres unmarked) [Compound 14, 4-Phenyl-7-((5-((2,3-dihydroxypropyl)thio)-4-ethyl-4H-1,2,4-triazol-3-yl)methoxy)-2H-chromen-2-one], the melting point was in the range of 180 to 181 °C. In series [1], this compound gave a cytotoxicity at 100 µM of 90.5 ± 1.1%. Further, the “Toxicity on normal skin cells BJ-1 (in words)” value (“Toxicity … (in words)” below) in [2] was “high toxicity”. In series [3], this compound showed a cytotoxicity at 100 µM of 95.2 ± 0.9%. Further, in series [4], the cytotoxicity at 100 µM is 98.1 ± 0.3%. In [5], this compound displayed a cytotoxicity at 100 µM of 97.8 ± 0.7%. In addition, the cytotoxicity at 100 µM in series [6] came to 91.2 ± 2.1%.
As for `CC(=O)O[C@@H]1[C@@H](OC(C)=O)[C@H](OCc2cn(CCCOc3ccc4c(-c5ccccc5)cc(=O)oc4c3)nn2)OC[C@H]1OC(C)=O` [Compound 22], the melting point was in the range of 127 to 128 °C. For the same compound, the cytotoxicity at 100 µM in series [1] turned out to be 90.6 ± 1.5%. Moreover, in series [2], the “Toxicity … (in words)” value is “high toxicity”. In addition, the cytotoxicity at 100 µM in [3] was 97.3 ± 0.8%. This compound also displayed a cytotoxicity at 100 µM in series [4] of 91.9 ± 0.8%. This compound gave a cytotoxicity at 100 µM in series [5] of 97.1 ± 1.1%. This compound showed a cytotoxicity at 100 µM in [6] of 57.5 ± 0.5%.
In the case of `O=c1cc(-c2ccccc2)c2ccc(OCCCn3cc(CO[C@@H]4O[C@H](CO)[C@H](O)[C@H](O)[C@H]4O)nn3)cc2o1` [Compound 24], the melting point fell in the range of 190 to 191 °C. Also, in series [1], the cytotoxicity at 100 µM worked out at 97.6 ± 1.3%. For the same compound, the “Toxicity … (in words)” value in series [2] is “high toxicity”. The cytotoxicity at 100 µM in series [3] was 99.1 ± 0.8%. The compound further registered a cytotoxicity at 100 µM in series [4] of 88.2 ± 1.1%. The cytotoxicity at 100 µM in [5] was 97.7 ± 0.8%. This compound came in with a cytotoxicity at 100 µM in series [6] of 86.5 ± 0.9%.
`Cn1c(COc2ccc3c(-c4ccccc4)cc(=O)oc3c2)nnc1SC1OCC(O)C(O)C1O` [Compound 8, 4-Phenyl-7-((4-methyl-5-(1-(β-D-xylopyranosyl)thio)-4H-1,2,4-triazol-3-yl)meth-oxy)-2H-chromen-2-one]: the melting point lay within 231 to 232 °C. The compound further displayed a cytotoxicity at 100 µM in series [1] of 41.9 ± 0.7%. Besides, the IC50 at EGFR is 0.22 ± 0.01 µM. Further, on VEGFR-2, the IC50 amounted to 0.93 ± 0.42 µM. Moreover, in series [3], the cytotoxicity at 100 µM is 23 ± 0.6%. In [4], this compound returned a cytotoxicity at 100 µM of 60.1 ± 0.7% and an IC50 of 52.2 ± 1.3 µM. The cytotoxicity at 100 µM in [5] turned out to be 37.1 ± 2.3%. The IC50 on CDK-2/cyclin A2 turned out to be 0.24 ± 0.2 µM. Besides, the cytotoxicity at 100 µM in series [6] is 28.4 ± 0.6%.
Turning to `Cn1c(COc2ccc3c(-c4ccccc4)cc(=O)oc3c2)nnc1SCCOCCO` [Compound 11, 4-Phenyl-7-((5-((2-(2-hydroxyethoxy)ethyl)thio)-4-methyl-4H-1,2,4-triazol-3-yl)methoxy)-2H-chromen-2-one], the melting point lay in the range of 155 to 156 °C. Besides, the cytotoxicity at 100 µM in series [1] turned out to be 39.7 ± 0.8%. Moreover, in series [2], the “Toxicity … (in words)” value is reported as “high toxicity”. Also, the cytotoxicity at 100 µM in series [3] amounted to 91.7 ± 1.1%. Moreover, the cytotoxicity at 100 µM in series [4] was found to be 86.7 ± 0.7%. The compound also returned a cytotoxicity at 100 µM in [5] of 62.4 ± 0.7%. The compound further had a cytotoxicity at 100 µM in series [6] of 19.1 ± 0.4%.
`CC(=O)OC[C@H]1O[C@@H](OCc2cn(CCCOc3ccc4c(-c5ccccc5)cc(=O)oc4c3)nn2)[C@H](OC(C)=O)[C@@H](OC(C)=O)[C@H]1OC(C)=O` [Compound 21] returned a melting point of 114 to 115 °C. This compound also gave a cytotoxicity at 100 µM in series [1] of 58.3 ± 1.7%. On EGFR, the “Inhibitory activity against EGFR (in words)” value is listed as “no inhibitory activities” and the IC50 came out at 123 ± 0.1 µM. Further, on VEGFR-2, the “Inhibitory activity against VEGFR-2 (in words)” value is on record as “no inhibitory activities” and the IC50 came to 172 ± 0.02 µM. In [3], the cytotoxicity at 100 µM was determined as 64.9 ± 0.5%. The IC50 in series [3] (HCT-116, MTT, 0.78–100 µM, ± SD) came to 82.8 ± 2.3 µM. In series [4], this compound had a cytotoxicity at 100 µM of 85.4 ± 1.8% and an IC50 of 38.9 ± 0.8 µM. The same compound displayed a cytotoxicity at 100 µM in series [5] of 26.4 ± 0.3%. On CDK-2/cyclin A2, the “Inhibitory activity against CDK-2/cyclin A2 (in words)” value is on record as “no inhibitory activities” and the IC50 is 211 ± 0.05 µM. Besides, the cytotoxicity at 100 µM in [6] came out at 59.2 ± 1.1%.
`O=c1cc(-c2ccccc2)c2ccc(OCCCCn3cc(CO[C@@H]4O[C@H](CO)[C@H](O)[C@H](O)[C@H]4O)nn3)cc2o1` [Compound 26] yielded a melting point of 195 to 196 °C. In series [1], this compound returned a cytotoxicity at 100 µM of 66.9 ± 2.2%. Moreover, the “Toxicity … (in words)” value in series [2] is reported as “high toxicity”. The compound also had a cytotoxicity at 100 µM in [3] of 83.9 ± 0.9%. In series [4], the cytotoxicity at 100 µM turned out to be 91.8 ± 1.2%. This compound also displayed a cytotoxicity at 100 µM in series [5] of 31.4 ± 0.5%. Moreover, in series [6], the cytotoxicity at 100 µM was 2.6 ± 0.2%.
